# According to patent publication US10226471B2, “Modified-release dosage forms of 5-HT2C agonists useful for weight management” (Arena Pharmaceuticals, Inc., priority 2010, dated 2019):
# Legend:
# [1] = Phase 3 clinical trials of lorcaserin for weight management
# in vivo [2] = settings: male, Sprague-Dawley, rat, plasma, po, 24 mg/kg/day
# [3] = not told
# [4] = Adverse events in BLOOM and BLOSSOM (Table A); format: in vivo, human; settings: 10 mg BID, N = 3195
# Method: (§1) The safety of Compound 1 has been evaluated in three randomized, double-blind, placebo-controlled trials, one of 2 years duration (“BLOOM” trial) and two of 1 year duration (“BLOSSOM” and “BLOOM-DM” trials). A total of 3451 patients were exposed to Compound 1 10 mg twice daily for up to 1 year; 571 patients were exposed for up to 2 years; and an additional 896 patients were exposed to Compound 1 10 mg once daily for up to 1 year. The BLOOM-DM study included only patients with type 2 diabetes mellitus; BLOOM and BLOSSOM excluded patients with diabetes.
# (§2) The most common adverse reactions for non-diabetic patients treated with Compound 1 compared to placebo were headache, upper respiratory tract infection, nasopharyngitis, dizziness, and nausea. The most common adverse reactions for diabetic patients were hypoglycemia, headache, back pain, nasopharyngitis, and nausea. Adverse events that were reported by ≥5% of patients and were more frequently reported by patients taking Compound 1 compared to placebo are summarized in Table A (BLOOM and BLOSSOM) and Table B (BLOOM DM).
# [5] = Pharmacokinetics parameters from an open-label, single-dose, cross-over clinical study (GastroPlus input); format: in vivo; settings: human, oral, 10 mg, clinical study in the fed and fasted state
# Method: The GastroPlus™ software (Simulations Plus, Inc., Lancaster, Calif.) was used to simulate the pharmacokinetics of Compound 1 from immediate-release and modified-release tablets. The release profile follows first order release kinetics and T80% is approximately 8 hours. The lower limit was not defined. Pharmacokinetics parameters of Compound 1 were obtained from an open-label, single-dose, cross-over clinical study in the fed and fasted state. Input variables and default values for GastroPlus™ simulation were as follows
# clinical = settings: human, brain (lumbar cerebrospinal fluid measured) and plasma, oral, 10 mg
# [6] = Safety in three randomized, double-blind, placebo-controlled trials (BLOOM, BLOSSOM, BLOOM-DM): discontinuation due to adverse reactions; format: in vivo, human
# Method: as §1
# The discontinuation rate due to adverse reaction was 7.1% for non-diabetic patients and 8.6% for patients with type 2 diabetes receiving Compound 1. The most common adverse reactions leading to discontinuation more often among Compound 1 treated patients than placebo were headache (1.3% vs. 0.8%), depression (0.9% vs. 0.5%) and dizziness (0.7% vs. 0.2%).
# in vivo [7] = settings: male, SD, rat, plasma
# Method: (§3) On Day 28, animals were placed in Culex® cages for automated blood collection. […] Analyte plasma concentrations were determined by LC/MS/MS. Noncompartmental PK analysis was performed using WinNonlin® (Pharsight®, Mountain View, Calif.) to determine t1/2, Cmaxss, Css and AUClast.
# [8] = continuous subcutaneous infusion 0.630 mg/kg/h, Day 28, mean
# Method: as §3
# [9] = Clinical trial of a single oral dose under fed and fasted conditions; format: in vivo, human; settings: single oral dose 10 mg
# Method: A clinical trial was performed to evaluate the safety and pharmacokinetic profile of a single oral dose of Compound 1 (10 mg) administered to healthy male and female subjects aged 18 to 60 years (inclusive) under fed and fasted conditions. […] Cmax was reduced by approximately 10% in the fed compared to fasted state, but a lack of food effect was not proven. […] Compound 1 was generally well tolerated when dosed in the fasted state and after a high-fat breakfast. There were a higher number of adverse events when dosed in the fasted state, (18 compared to 6) including two moderate intensity (nausea and headache) and one severe (vomiting) intensity events occurring in a single subject.
# [10] = Adverse events in BLOOM-DM, patients with type 2 diabetes (Table B); format: in vivo, human; settings: 10 mg BID
# Method: as §1, §2
# [11] = subcutaneous Alzet pump, 1 mg/kg/h for four days; mean
# [12] = phase 3 trial, after 12 months, ITT-LOCF
smiles,measurement,setting,value
C[C@H]1CNCCc2ccc(Cl)cc21 [Compound 1],excess body weight lost,"[1]; first phase 3 trial, based on a normal BMI of 25",about one-third
same,average weight loss,[1]; [12],12.7 pounds
same,"average weight loss, of body weight",[1]; [12],5.8%
same,"average weight lost, of their weight",[1]; pivotal phase 3 clinical trial program,about 8%
same,patients achieved at least 10% weight loss,"[1]; pivotal phase 3 clinical trial program, treated for up to two years",over one-third
same,"average weight loss, top quartile of patients",[1]; second phase 3 trial,35 pounds
same,"average weight loss, top quartile of patients, of body weight",[1]; second phase 3 trial,16%
same,development of FDA-defined valvulopathy (echocardiograms),[1]; two-year treatment period,no apparent drug-related effect
same,AUC(0-inf),in vivo [2],5210 ng·h/mL
same,AUC(0-t),in vivo [2],5210 ng·h/mL
same,Cmax,in vivo [2],700 ng/mL
same,Tmax,in vivo [2],0.5 h
same,half-life,"in vivo [2]; t1/2, Day 6, oral gavage 24 mg/kg/day for 6 days, not fasted, composite profiles",4 h
same,Papp,[3],3.54 ×10⁻⁶ cm/s
same,"Back pain, number of patients",[4],201
same,"Back pain, patients (%)",[4],(6.3) %
same,"Constipation, number of patients",[4],186
same,"Constipation, patients (%)",[4],(5.8) %
same,"Diarrhea, number of patients",[4],207
same,"Diarrhea, patients (%)",[4],(6.5) %
same,"Dizziness, number of patients",[4],270
same,"Dizziness, patients (%)",[4],(8.5) %
same,"Dry mouth, number of patients",[4],169
same,"Dry mouth, patients (%)",[4],(5.3) %
same,"Fatigue, number of patients",[4],229
same,"Fatigue, patients (%)",[4],(7.2) %
same,"Headache, number of patients",[4],537
same,"Headache, patients (%)",[4],(16.8) %
same,"Nasopharyngitis, number of patients",[4],414
same,"Nasopharyngitis, patients (%)",[4],(13.0) %
same,"Nausea, number of patients",[4],264
same,"Nausea, patients (%)",[4],(8.3) %
same,"Upper respiratory tract infection, number of patients",[4],439
same,"Upper respiratory tract infection, patients (%)",[4],(13.7) %
same,"Urinary tract infection, number of patients",[4],207
same,"Urinary tract infection, patients (%)",[4],(6.5) %
same,logP,physchem,2.56
same,pKa,physchem,9.53
same,blood plasma ratio,"[5]; blood and plasma, read-out: Blood to plasma concentration ratio",1.3
same,clearance,[5]; plasma,326 mL/min
same,Vd,"[5]; plasma, read-out: Apparent volume of distribution",307 L
same,Kp,clinical,< 1
same,depression leading to discontinuation,[6]; Compound 1 treated patients,0.9%
same,dizziness leading to discontinuation,[6]; Compound 1 treated patients,0.7%
same,headache leading to discontinuation,[6]; Compound 1 treated patients,1.3%
same,discontinuation rate due to adverse reaction,[6]; non-diabetic patients,7.1%
same,discontinuation rate due to adverse reaction,[6]; patients with type 2 diabetes,8.6%
same,AUC(0-t),"in vivo [7]; po, 24 mg/kg/day",4170 ng·h/mL
same,Cmax,"in vivo [7]; po, 24 mg/kg/day",553 ng/mL
same,AUC(0-t),"in vivo [7]; sc, 0.63 mg/kg/h",3630 ng·h/mL
same,Cmax,"in vivo [7]; sc, 0.63 mg/kg/h",213 ng/mL
same,t1/2,"Day 6, oral gavage 24 mg/kg/day for 6 days, not fasted, composite profiles, 24 mg/kg/day",4.02 h
same,Css = AUC24 hr ÷ dosing interval (24 h),calculated for the infusion rate of the chronic study,213 ng/mL
same,"Css, 0 to 21 h",[8],155 ng/mL
same,number of adverse events,[9]; after a high-fat breakfast,6
same,number of adverse events,[9]; fasted state,18
same,food effect on overall exposure,[9]; fed vs fasted,no food effect on overall exposure
same,reduction of Cmax in the fed compared to fasted state,[9]; high-fat breakfast,approximately 10%
same,"time of maximum plasma concentrations, fed compared to fasted",[9]; high-fat breakfast,statistically significant delay
same,"Back pain, patients (%)",[10],(11.7) %
same,"Cough, patients (%)",[10],(8.2) %
same,"Dizziness, patients (%)",[10],(7.0) %
same,"Fatigue, patients (%)",[10],(7.4) %
same,"Gastroenteritis viral, patients (%)",[10],(7.0) %
same,"Headache, patients (%)",[10],(14.5) %
same,"Back pain, number of patients",[10]; N = 3195,30
same,"Cough, number of patients",[10]; N = 3195,21
same,"Dizziness, number of patients",[10]; N = 3195,18
same,"Fatigue, number of patients",[10]; N = 3195,19
same,"Gastroenteritis viral, number of patients",[10]; N = 3195,18
same,"Headache, number of patients",[10]; N = 3195,37
same,"Hypertension, number of patients",[10]; N = 3195,13
same,"Hypertension, patients (%)",[10]; N = 3195,(5.1) %
same,"Hypoglycemia (including asymptomatic), number of patients",[10]; N = 3195,75
same,"Hypoglycemia (including asymptomatic), patients (%)",[10]; N = 3195,(29.3) %
same,"Hypoglycemia, symptomatic, number of patients",[10]; N = 3195,19
same,"Hypoglycemia, symptomatic, patients (%)",[10]; N = 3195,(7.4) %
same,"Influenza, number of patients",[10]; N = 3195,15
same,"Influenza, patients (%)",[10]; N = 3195,(5.9) %
same,"Nasopharyngitis, number of patients",[10]; N = 3195,29
same,"Nasopharyngitis, patients (%)",[10]; N = 3195,(11.3) %
same,"Nausea, number of patients",[10]; N = 3195,24
same,"Nausea, patients (%)",[10]; N = 3195,(9.4) %
same,"Procedural pain, number of patients",[10]; N = 3195,13
same,"Procedural pain, patients (%)",[10]; N = 3195,(5.1) %
same,"Urinary tract infection, number of patients",[10]; N = 3195,23
same,"Urinary tract infection, patients (%)",[10]; N = 3195,(9.0) %
same,Cl,[11],49.3 ± 4.83 mL/min/kg
same,Css from 42 to 90 hours,[11],340 ng/mL
